From patent publication US5330992A, “1-cyclopropyl-4-pyridyl-quinolinones” (priority 1992, dated 1994)
pEC50, pIC50: −log10 of the molar value. Read-outs that look alike come from different tables or passages of the source.

Assays:
human topoisomerase II = biological target: T1, human topoisomerase II (Homo sapiens, UniProt P11388); experiment: Mammalian Topoisomerase II Inhibition Assay (DNA-topo II complex formation); assay type: biochemical; details: read-out: TopoII Inh. EC50
T1 construct: Topo II was purified from late log phase suspension cultures of HeLa WIS; endogenous in cells; host or cells: HeLa WIS suspension cultures, late log phase (enzyme purified from the cells)
Protocol: Mammalian Topoisomerase II Inhibition Assay Procedure
The assay quantitates the amount of topo II covalently complexed by DNA at equilibrium during a topo II reaction. This assay determines the potential of a compound to stabilize this complex, which potential is closely related to the cytotoxicity of the compound.
Assays (in duplicate) were assembled at 4° C.
4 ng 3' end labeled (^32 P) pBR322 DNA (10^7 DMP/μg)
The assay mix including the test compound was incubated for 20 minutes at 37° C. The reaction was terminated at 37° C. by the addition of 3 μl 10% SDS followed by the addition of 266 μl 10 mM Tris-Cl pH 7.5, 20 μg/ml BSA, 20 μg/ml calf thymus DNA, 1% SDS.
A SDS/protein precipitate was formed by the addition of 28 μl 2.5M KCl followed by chilling on ice for a minimum of 10 minutes. The precipitate was collected and washed with a Brandell cell harvester on a GFB glass fiber filter membrane as follows. The contents of the assay tube were drawn up into the harvester. The tube was then rinsed 7X with 10 mM Tris-Cl pH 7.5, 1 mM EDTA and 100 mM KCl. […] After drying, CPM was determined by liquid scintillation counting with 5 ml Biofluor (NEN Research Products) or Readisafe (Beckman Instruments Inc.) cocktail.
This solution then was diluted 1/5 into water and serially thereafter in either 0.02N sodium hydroxide or 0.04N hydrogen chloride, respectively. The stock solution and serial dilution of the test compound was stored at -20° C. prior to testing.
Screening of test compound--As an initial screen, the test compound was tested at a final concentration of 2, 20 and 200 μg/ml. The compound was then retested at a range of concentrations (usually 2-3X steps) bridging their approximate EC50 's, as estimated by the prescreen.
Controls--A solvent control which indicates the base level of topo II-DNA complex formed in the absence of the test compound was included in each test. A control, in which topo II was omitted, was included for each test compound at the highest drug concentration tested.
Reference Agent--A dose response curve with mAMSA at 0.01, 0.08, 0.16, 0.32, 1.0 and 10 μg/ml was included in each test.
The maximal DNA-topo II complex formed is taken as that equal to that formed at the nearly saturating dose of mAMSA (10 μg/ml).

[1] = system: P388 murine leukemia cells; experiment: Malignant cell cytotoxicity, one-hour exposure (clonogenic survival in soft agar); assay type: cell-based; details: Mus musculus, 1 hr exposure, read-out: IC50 P388 1 hr. exp.
Protocol: (§1) Examples of compound I having Topo II activity were tested for malignant cell cytotoxicity. In vitro cytotoxicity was assayed by determining cell survival following exposure of P388 murine leukemia cells to a range of test compound concentrations. Cytotoxicity was quantitated following either a one-hour exposure or continuous exposure of P388 cells to test compound.
(§2) Cytotoxicity following a one-hour exposure of cells to drug was assayed by quantitating clonogenic cell survival according to a published procedure [Freshney, R. L. (1987) Culture of Animal Cells. A Manual of Basic Technique. Wiley-Liss Inc., New York, N.Y., pp. 140-144]. Briefly, following drug exposure cells were plated in soft agar and incubated (37°, 5% CO2) for 7-10 days during which time viable cells form visible colonies. Cytotoxicity following continuous exposure of cells to test compound was assayed by quantitating total P388 cells on a Coultier Counter following a 48-hour co-incubation of test compound with cells. P388 cells were maintained in log phase throughout the duration of cytotoxicity assays.
(§3) The percentage of cells surviving relative to an untreated control was graphed as a function of increasing drug concentration.

[2] = system: P388 murine leukemia cells; experiment: Malignant cell cytotoxicity, continuous 48-hour exposure (Coulter Counter); assay type: cell-based; details: Mus musculus, read-out: IC50 P388 cont. exp.
Protocol: as §1, §2, §3

[3] = EC50 = concentration with activity equal to EC50 of reference mAMSA

T1 sequence (P11388 whole entry): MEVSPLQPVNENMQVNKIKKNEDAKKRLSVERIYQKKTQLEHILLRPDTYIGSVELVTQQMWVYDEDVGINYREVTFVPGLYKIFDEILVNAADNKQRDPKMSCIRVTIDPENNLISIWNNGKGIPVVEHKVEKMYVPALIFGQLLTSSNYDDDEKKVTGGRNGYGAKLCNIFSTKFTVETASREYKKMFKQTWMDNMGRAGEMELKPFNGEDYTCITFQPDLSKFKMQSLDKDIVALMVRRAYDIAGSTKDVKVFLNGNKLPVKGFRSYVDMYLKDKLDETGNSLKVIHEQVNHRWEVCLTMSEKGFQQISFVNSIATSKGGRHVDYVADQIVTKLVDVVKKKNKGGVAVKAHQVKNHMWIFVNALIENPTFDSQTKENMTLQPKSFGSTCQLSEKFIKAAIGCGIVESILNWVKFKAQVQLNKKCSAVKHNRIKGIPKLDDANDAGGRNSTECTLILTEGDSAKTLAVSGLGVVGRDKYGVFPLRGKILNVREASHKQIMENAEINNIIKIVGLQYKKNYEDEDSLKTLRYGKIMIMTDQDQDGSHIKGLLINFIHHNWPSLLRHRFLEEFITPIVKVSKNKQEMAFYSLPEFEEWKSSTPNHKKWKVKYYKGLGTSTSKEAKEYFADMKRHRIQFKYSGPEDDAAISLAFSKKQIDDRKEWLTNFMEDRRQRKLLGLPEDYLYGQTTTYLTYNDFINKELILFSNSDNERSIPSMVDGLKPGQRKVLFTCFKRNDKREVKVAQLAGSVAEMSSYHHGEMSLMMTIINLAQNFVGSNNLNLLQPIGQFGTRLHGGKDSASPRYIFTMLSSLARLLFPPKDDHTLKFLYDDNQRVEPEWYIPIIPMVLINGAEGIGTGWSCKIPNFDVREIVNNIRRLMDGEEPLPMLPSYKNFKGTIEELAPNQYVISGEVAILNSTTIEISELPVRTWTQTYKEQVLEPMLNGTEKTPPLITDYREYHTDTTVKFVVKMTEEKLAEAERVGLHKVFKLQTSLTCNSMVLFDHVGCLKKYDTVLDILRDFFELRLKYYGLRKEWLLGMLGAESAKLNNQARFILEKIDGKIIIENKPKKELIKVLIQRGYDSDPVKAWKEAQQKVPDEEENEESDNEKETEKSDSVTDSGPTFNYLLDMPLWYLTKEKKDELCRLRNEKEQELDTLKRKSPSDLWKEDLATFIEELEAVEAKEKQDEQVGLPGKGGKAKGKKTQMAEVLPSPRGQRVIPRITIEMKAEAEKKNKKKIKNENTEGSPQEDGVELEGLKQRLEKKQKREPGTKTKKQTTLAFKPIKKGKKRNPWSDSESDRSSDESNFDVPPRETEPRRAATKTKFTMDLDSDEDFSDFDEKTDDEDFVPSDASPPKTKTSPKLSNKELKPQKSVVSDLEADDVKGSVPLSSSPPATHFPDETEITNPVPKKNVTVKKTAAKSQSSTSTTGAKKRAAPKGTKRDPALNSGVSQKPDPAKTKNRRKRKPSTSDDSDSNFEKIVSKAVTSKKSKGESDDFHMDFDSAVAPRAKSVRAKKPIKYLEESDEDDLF

| Structure (SMILES) | pEC50 (human topoisomerase II; [3]) | pEC50 (human topoisomerase II; * Bell-shaped curve) | pEC50 (human topoisomerase II; * Bell-shaped curve, E = extrapolated) | pIC50 [1] | pIC50 [2] |
| --- | --- | --- | --- | --- | --- |
| COc1cc(OC)c(Cc2cn(C3CC3)c3c(F)c(-c4cc(C)nc(C)c4)c(F)cc3c2=O)c(OC)c1 [Example 14] | < 3.72 |  |  |  |  |
| COc1cccc(Cc2cn(C3CC3)c3c(F)c(-c4cc(C)nc(C)c4)c(F)cc3c2=O)c1OC [Example 11] | < 3.68 |  |  |  | 5.05 |
| Cc1cc(-c2c(F)cc3c(=O)c(Cc4ccc[nH]4)cn(C4CC4)c3c2F)cc(C)n1 [Example 16] | 5.29 |  |  | 6.03 |  |
| COc1ccc(Cc2cn(C3CC3)c3c(F)c(-c4cc(C)nc(C)c4)c(F)cc3c2=O)c(OC)c1 [Example 12] | < 3.68 |  |  | < 3.70 | 5.13 |
| COc1cc(Cc2cn(C3CC3)c3c(F)c(-c4cc(C)nc(C)c4)c(F)cc3c2=O)cc(OC)c1OC [Example 5] | < 3.72 |  |  |  | 4.74 |
| Cc1cc(-c2c(F)cc3c(=O)c(Cc4ccccn4)cn(C4CC4)c3c2F)cc(C)n1 [Example 4] | 4.92 |  |  |  | 5.40 |
| Cc1cc(-c2c(F)cc3c(=O)c(Cc4c(CO)cnc(C)c4O)cn(C4CC4)c3c2F)cc(C)n1 [Example 21] | 5.34 |  |  |  |  |
| CC(=O)Nc1ccc(Cc2cn(C3CC3)c3c(F)c(-c4cc(C)nc(C)c4)c(F)cc3c2=O)cc1 [Example 19] | 4.33 |  |  |  |  |
| Cc1cc(-c2c(F)cc3c(=O)c(Cc4ccccc4C(=O)O)cn(C4CC4)c3c2F)cc(C)n1 [Example 15] | 3.70 |  |  |  |  |
| Cc1cc(-c2c(F)cc3c(=O)c(Cc4ccccc4NC(=O)C(F)(F)F)cn(C4CC4)c3c2F)cc(C)n1 [Example 22] | 5.33 |  |  |  |  |
| Cc1cc(-c2c(F)cc3c(=O)c(Cc4ccc5c(c4)OCO5)cn(C4CC4)c3c2F)cc(C)n1 [Example 10] |  | 4.47 |  |  | 5.07 |
| Cc1cc(-c2c(F)cc3c(=O)c(Cc4ccc(Cl)cc4)cn(C4CC4)c3c2F)cc(C)n1 [Example 6] | 5.11 |  |  | 4.70 | 5.21 |
| COc1ccc(Cc2cn(C3CC3)c3c(F)c(-c4cc(C)nc(C)c4)c(F)cc3c2=O)c(OC)c1C [Example 17] | < 3.68 |  |  |  |  |
| COc1ccccc1Cc1cn(C2CC2)c2c(F)c(-c3cc(C)nc(C)c3)c(F)cc2c1=O [Example 8] | 4.96 |  |  | 4.43 | 5.16 |
| COc1cccc(OC)c1Cc1cn(C2CC2)c2c(F)c(-c3cc(C)nc(C)c3)c(F)cc2c1=O [Example 1, 1-Cyclopropyl-6,8-difluoro-7-[2,6-dimethyl-4-pyridinyl]-3-[2,6-dimethoxyphenylmethyl]-1,4-dihydro-quinolin-4-one] | 4.43 |  |  | 4.10 | 4.70 |
| Cc1cc(-c2c(F)cc3c(=O)c(Cc4ccncc4)cn(C4CC4)c3c2F)cc(C)n1 [Example 13] | 5.04 |  |  |  | 5.64 |
| COc1ccc(Cc2cn(C3CC3)c3c(F)c(-c4cc(C)nc(C)c4)c(F)cc3c2=O)cc1 [Example 7] |  |  | 4.85 | 4.68 | 4.85 |
| Cc1cc(-c2c(F)cc3c(=O)c(Cc4ccc(F)cc4O)cn(C4CC4)c3c2F)cc(C)n1 [Example 2, 1-cyclopropyl-6,8-difluoro-7-[2,6-dimethyl-4-pyridinyl]-3-[4-fluoro-2-hydroxyphenylmethyl) -4(H)-quinolone] | 6.00 |  |  | 5.80 |  |
| COc1ccc(OC)c(Cc2cn(C3CC3)c3c(F)c(-c4cc(C)nc(C)c4)c(F)cc3c2=O)c1 [Example 23] | 4.70 |  |  |  |  |
| COc1cccc(Cc2cn(C3CC3)c3c(F)c(-c4cc(C)nc(C)c4)c(F)cc3c2=O)c1 [Example 9] | 4.85 |  |  | 4.70 | 5.21 |

More lines, main results first:

| pEC50 (human topoisomerase II; [3]) | pEC50 (human topoisomerase II; * Bell-shaped curve) | pEC50 (human topoisomerase II; * Bell-shaped curve, E = extrapolated) | Structure (SMILES) | pIC50 [1] | pIC50 [2] |
| --- | --- | --- | --- | --- | --- |
| 6.80 |  |  | Cc1cc(-c2c(F)cc3c(=O)c(Cc4cc(O)ccc4O)cn(C4CC4)c3c2F)cc(C)n1 [Example 38] | 6.44 |  |
| 5.14 |  |  | Cc1cc(-c2c(F)cc3c(=O)c(Cc4ccc(N)cc4)cn(C4CC4)c3c2F)cc(C)n1 [Example 39] |  |  |
| 6.80 |  |  | Cc1cc(-c2c(F)cc3c(=O)c(Cc4ccc(O)c(O)c4)cn(C4CC4)c3c2F)cc(C)n1 [Example 32] | 6.22 | 5.85 |
| 5.92 |  |  | Cc1cc(-c2c(F)cc3c(=O)c(Cc4ccc(O)cc4)cn(C4CC4)c3c2F)cc(C)n1 [Example 27, 1-Cyclopropyl-6,8-difluoro-7-[2,6-dimethyl-4-pyridinyl]-3-[4-hydroxyphenylmethyl]-1,4-dihydro-quinoline-4-one] | 5.82 | 6.35 |
| 6.82 |  |  | Cc1cc(-c2c(F)cc3c(=O)c(Cc4cccc(F)c4O)cn(C4CC4)c3c2F)cc(C)n1 [Example 37] | 3.90 |  |
| 5.48 |  |  | Cc1cc(-c2c(F)cc3c(=O)c(Cc4ccccc4NS(C)(=O)=O)cn(C4CC4)c3c2F)cc(C)n1 [Example 25] |  |  |
| 6.44 |  |  | Cc1cc(-c2c(F)cc3c(=O)c(Cc4cccc(O)c4O)cn(C4CC4)c3c2F)cc(C)n1 [Example 34] | 6.06 | 6.49 |
| 5.96 |  |  | Cc1cc(-c2c(F)cc3c(=O)c(Cc4cccc(O)c4)cn(C4CC4)c3c2F)cc(C)n1 [Example 31] | 5.66 | 5.82 |
| 5.12 |  |  | COc1cc(Cc2cn(C3CC3)c3c(F)c(-c4cc(C)nc(C)c4)c(F)cc3c2=O)cc(OC)c1O [Example 28] | 5.09 | 5.34 |
| 5.68 |  |  | Cc1cc(-c2c(F)cc3c(=O)c(Cc4ccccc4N)cn(C4CC4)c3c2F)cc(C)n1 [Example 41a] |  |  |
| 5.80 |  |  | Cc1cc(-c2c(F)cc3c(=O)c(Cc4c[nH]cn4)cn(C4CC4)c3c2F)cc(C)n1 [Example 24] | 6.41 |  |
| 7.01 |  |  | Cc1cc(-c2c(F)cc3c(=O)c(Cc4c(O)cc(O)cc4O)cn(C4CC4)c3c2F)cc(C)n1 [Example 35] | 6.33 |  |
| 6.22 |  |  | Cc1cc(-c2c(F)cc3c(=O)c(Cc4cc(O)c(O)c(O)c4)cn(C4CC4)c3c2F)cc(C)n1 [Example 29] | 5.52 | 5.10 |
| 6.70 |  |  | Cc1cc(-c2c(F)cc3c(=O)c(Cc4ccc(O)c(C)c4O)cn(C4CC4)c3c2F)cc(C)n1 [Example 36] |  |  |
| 5.29 |  |  | CC(=O)Nc1ccccc1Cc1cn(C2CC2)c2c(F)c(-c3cc(C)nc(C)c3)c(F)cc2c1=O [Example 41b] |  |  |
